Experimental data as given in US20150133411A1, “COMPOUNDS WITH TRPV4 ACTIVITY, COMPOSITIONS AND ASSOCIATED METHODS THEREOF” (The University of Utah Research Foundation, priority 2012, published 2015).

System: MB model of glaucoma
Assay: IOP time course after single eye drop in MB model of glaucoma
Type: in vivo, mouse
Conditions: single dose eye drop
Protocol: Specifically, microbeads (MBs) were injected into the anterior chamber of a mouse eye as described in Example 2 with PBS-injected eyes used as controls. Compound 1 (10 mg/kg body weight) (or PBS vehicle) was injected intraperitoneally (IP). […] IOP was measured in mice between 10:00 AM and 1:00 PM with the TonoLab rebound tonometer (Colonial Medical Supply, Franconia, NH/Tyolat, Helsinki, Finland). Mice were sedated with IP injection of Avertin with final amount calculated by weight (e.g., 0.5 ml for 21-24 g animals). Animals were placed on a jack stand platform and the tonolab was clamped on a ring stand and centered onto the mid-cornea. During measurements animal were neither restrained nor touched. Each eye was measured twenty consecutive times, the highest and lowest values were discarded and the values were averaged.
FIG. 9 illustrates the short-term effects of a single dose of Compound 1 (eye drop) in the MB model of glaucoma. IOP was measured as described in Example 3 at the indicated time points after receiving a drop of Compound 1. Compound 1 reduced IOP beginning at 1 hour after dosing and continued through 6 hours after dosing.
FIG. 10 illustrates a time course of Compounds 1, 2, 5 and Compound 2-HCl as well as a positive control compound, timolol, with regard to inhibition of IOP. The experiment was conducted as described in Example 9. Each of the TRPV4 antagonists reduced IOP with a similar time course. Specifically, Compounds 1, 2, 5 and Compound 2-HCl reduced IOP for at least 6 hours after dosing.
FIG. 11 illustrates a time course of Compound 2-HCl activity. The experiment was conducted as described in Example 9. […] 2
FIG. 12 illustrates a comparison of the time course of Compound 2-HCl and Compound 5. The experiment was conducted as described in Example 9.

SMILES: Cc1c(C(=O)Nc2cccc(C(F)(F)F)c2)cc(-c2ccccc2)n1CCCN1CCOCC1 [Compound 1, N-(3-(trifluoromethyl)phenyl)-2-methyl-1-(3-morpholinopropyl)-5-phenyl-1H-pyrrole-3-carboxamide]
- time after dosing at which IOP reduction begins: 1 h
